Assay results taken from patent US6548496B2, “Substituted 3-cyano-[1.7], [1.5], and [1.8] naphthyridine inhibitors of tyrosine kinases” (American Cyanamid Company, priority 1999, dated 2003).
≈ marks a conversion by molar mass, not a printed value.

How the values were obtained:
[1] = biological target: Epithelial Cell Kinase (ECK) (Homo sapiens, UniProt P29317); experiment: Inhibition of Epithelial Cell Kinase (ECK); type: biochemical; settings: biotinylated peptide substrate, HRP anti-phosphotyrosine readout, pH 7.2
Procedure: In this standard pharmacological test procedure, a biotinylated peptide substrate is first immobilized on neutravidin-coated microtiter plates. The test drug, the Epithelial Cell Kinase (ECK), Mg^++, sodium vanadate (a protein tyrosine phosphatase inhibitor), and an appropriate buffer to maintain pH (7.2) are then added to the immobilized substrate-containing microtiter wells. ATP is then added to initiate phosphorylation. After incubation, the assay plates are washed with a suitable buffer leaving behind phosphorylated peptide which is exposed to horse radish peroxidase (HRP)-conjugated anti-phosphotyrosine monoclonal antibody. The antibody-treated plates are washed again and the HRP activity in individual wells is quantified as a reflection of degree of substrate phosphorylation. This nonradioactive format was used to identify inhibitors of ECK tyrosine kinase activity where the IC50 is the concentration of drug that inhibits substrate phosphorylation by 50%. Multiple entries for a given compound indication it was tested multiple times.

[2] = biological target: T1, epidermal growth factor receptor kinase (EGF-R), His-tagged cytoplasmic domain of EGFR (Homo sapiens, UniProt P00533); experiment: Inhibition of EGF-R kinase using recombinant enzyme; type: biochemical; settings: RR-SRC peptide substrate, 33P-ATP, 90 min at room temperature
T1 construct: containing the EGFR cDNA encoding amino acids 645-1186 preceded by Met-Ala-(His)6; made in house; host or cells: Sf9 insect cells, recombinant baculovirus vHcEGFR52
Procedure: Representative test compounds were evaluated for their ability to inhibit the phosphorylation of the tyrosine residue of a peptide substrate catalyzed by the enzyme epidermal growth factor receptor kinase. The peptide substrate (RR-SRC) has the sequence arg-arg-leu-ile-glu-asp-ala-glu-tyr-ala-ala-arg-gly. The enzyme used in this assay is the His-tagged cytoplasmic domain of EGFR. A recombinant baculovirus (vHcEGFR52) was constructed containing the EGFR cDNA encoding amino acids 645-1186 preceded by Met-Ala-(His)6. Sf9 cells in 100 mm plates were infected at an moi of 10 pfu/cell and cells were harvested 48 h post infection. A cytoplasmic extract was prepared using 1% Triton X-100 and applied to Ni-NTA column. After washing the column with 20 mM imidazole, HcEGFR was eluted with 250 mM imidazole (in 50 mM Na2HPO4, pH 8.0, 300 mM NaCl). […]
For the enzyme reaction, 10 uL of each inhibitor (at various concentrations) were added to each well of a 96-well plate. […] The filter discs were washed 2× with 0.5% phosphoric acid and radioactivity was measured using a liquid scintillation counter.
The inhibition data for representative compounds of the invention are shown below in TABLE 1. […] The % inhibition of the test compound was determined for at least three different concentrations and the IC50 value was evaluated from the dose response curve. The % inhibition was evaluated with the following formula: […]

[3] = tested on: SW620; experiment: Inhibition of cancer cell growth by cell number, SW620; type: cell-based, Human; settings: Homo sapiens, SW-620; 48 hours exposure, Sulforhodamine B
Procedure: (§1) Human tumor cell lines were plated in 96-well plates (250 μl/well, 1-6×10^4 cells/ml) in RPMI 1640 medium, containing 5% FBS (Fetal Bovine Serum). […] After 48 hours exposure to test compounds, cells were fixed with trichloroacetic acid, and stained with Sulforhodamine B. After washing with trichloroacetic acid, bound dye was solubilized in 10 mM Tris base and optical density was determined using a plate reader. Under conditions of the assay the optical density is proportional to the number of cells in the well. IC50s (concentrations causing 50% inhibition of cell growth) were determined from the growth inhibition plots. The test procedure is described in details by Philip Skehan et. at J. Natl. Canc. Inst., 82, 1107-1112 (1990). […] Information about some of the cell lines used in these test procedures is available from the American […]: Cell Lines and Hybridomas, 1994 Reference Guide, 8th Edition. The Her2Neu cell line is a 3T3 line that has bbeen transfected with Her2 receptor kinase.

[4] = tested on: MDA435; experiment: Inhibition of cancer cell growth by cell number, MDA435; type: cell-based, Human; settings: Homo sapiens, MDA435; 48 hours exposure, Sulforhodamine B
Procedure: as §1

[5] = tested on: A431; experiment: Inhibition of cancer cell growth by cell number, A431; type: cell-based, Human; settings: Homo sapiens, A-431; 48 hours exposure, Sulforhodamine B
Procedure: as §1

[6] = tested on: SKBR3; experiment: Inhibition of cancer cell growth by cell number, SKBR3; type: cell-based, Human; settings: Homo sapiens, SK-BR-3; 48 hours exposure, Sulforhodamine B
Procedure: as §1

[7] = tested on: A2780S; experiment: Inhibition of cancer cell growth by cell number, A2780S; type: cell-based, Human; settings: Homo sapiens, A2780S; 48 hours exposure, Sulforhodamine B
Procedure: as §1

[8] = tested on: A2780DDP; experiment: Inhibition of cancer cell growth by cell number, A2780DDP; type: cell-based, Human; settings: Homo sapiens; 48 hours exposure, Sulforhodamine B
Procedure: as §1

Epithelial Cell Kinase (ECK), sequence (P29317 24-976, species assumed): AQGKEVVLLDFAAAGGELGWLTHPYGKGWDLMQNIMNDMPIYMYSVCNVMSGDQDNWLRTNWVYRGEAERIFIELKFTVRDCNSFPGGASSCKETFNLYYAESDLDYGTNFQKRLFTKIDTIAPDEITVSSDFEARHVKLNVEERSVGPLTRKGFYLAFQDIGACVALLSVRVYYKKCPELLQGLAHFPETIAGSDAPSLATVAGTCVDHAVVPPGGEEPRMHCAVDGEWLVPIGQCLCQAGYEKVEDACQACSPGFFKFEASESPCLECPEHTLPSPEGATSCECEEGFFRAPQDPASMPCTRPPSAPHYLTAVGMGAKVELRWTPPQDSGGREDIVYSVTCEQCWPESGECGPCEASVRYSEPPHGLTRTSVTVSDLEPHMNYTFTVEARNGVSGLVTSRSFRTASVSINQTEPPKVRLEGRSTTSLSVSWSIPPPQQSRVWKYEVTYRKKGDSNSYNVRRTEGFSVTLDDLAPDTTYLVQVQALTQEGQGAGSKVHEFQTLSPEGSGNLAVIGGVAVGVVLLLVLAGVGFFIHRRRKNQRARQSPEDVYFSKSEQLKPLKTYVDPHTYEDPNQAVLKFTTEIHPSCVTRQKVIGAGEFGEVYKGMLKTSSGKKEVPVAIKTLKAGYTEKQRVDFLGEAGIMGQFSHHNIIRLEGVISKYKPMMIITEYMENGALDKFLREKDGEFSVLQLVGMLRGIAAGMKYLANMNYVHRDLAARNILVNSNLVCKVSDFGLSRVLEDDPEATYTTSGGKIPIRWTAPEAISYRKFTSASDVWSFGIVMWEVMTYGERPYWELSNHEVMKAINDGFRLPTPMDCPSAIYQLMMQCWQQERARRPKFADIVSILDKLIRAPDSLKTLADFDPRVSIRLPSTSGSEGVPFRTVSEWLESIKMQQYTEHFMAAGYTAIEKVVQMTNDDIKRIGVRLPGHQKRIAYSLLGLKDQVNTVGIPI
T1 sequence (P00533 669-1210): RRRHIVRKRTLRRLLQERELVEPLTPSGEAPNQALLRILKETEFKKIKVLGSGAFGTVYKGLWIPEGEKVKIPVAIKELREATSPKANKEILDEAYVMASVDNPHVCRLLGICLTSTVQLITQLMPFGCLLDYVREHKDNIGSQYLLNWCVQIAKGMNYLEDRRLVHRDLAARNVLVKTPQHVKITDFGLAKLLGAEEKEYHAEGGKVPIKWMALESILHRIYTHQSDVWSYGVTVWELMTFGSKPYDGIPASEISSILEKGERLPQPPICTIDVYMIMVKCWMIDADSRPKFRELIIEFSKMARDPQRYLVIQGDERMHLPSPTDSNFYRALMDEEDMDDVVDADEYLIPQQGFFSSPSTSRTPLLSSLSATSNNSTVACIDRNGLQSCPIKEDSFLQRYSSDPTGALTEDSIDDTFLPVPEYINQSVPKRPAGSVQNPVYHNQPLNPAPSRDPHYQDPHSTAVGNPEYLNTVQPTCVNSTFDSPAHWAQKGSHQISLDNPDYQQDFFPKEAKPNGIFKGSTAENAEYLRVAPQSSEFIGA

| Compound | melting point | further results |
| --- | --- | --- |
| CC#CC(=O)Nc1cnc2ncc(C#N)c(Nc3cccc(Br)c3)c2c1 [Example 24, But-2-ynoic Acid [5-(3-bromo-phenylamino)-6-cyano-[1,8]-naphthyridin-3-yl]-amide] | – | IC50 [1]: < 40 nM |
| CC#CC(=O)Nc1cnc2ncc(C#N)c(Nc3ccc(F)c(Cl)c3)c2c1 [Example 27, But-2-ynoic acid [5-(3-chloro-4-fluoro-phenylamino)-6-cyano-[1,8]naphthyridin-3-yl]-amide] | – | IC50 [2]: > 100 nM |
| N#Cc1cnc2cnc(F)cc2c1Nc1cccc(Br)c1 [Example 57, 4-(3-Bromo-phenylamino)-6-fluoro-[1,7]naphthyridine-3-carbonitrile] | 185 to 195 °C | – |
| COc1ccc(CNc2cc3c(Nc4cccc(Br)c4)c(C#N)cnc3cn2)cc1 [Example 58, 4-(3-Bromo-phenylamino)-6-(4-methoxy-benzylamino)-[1,7]naphthyridine-3-carbonitrile] | 82 to 86 °C (dec.) | – |
| N#Cc1cnc2cnc(N)cc2c1Nc1cccc(Br)c1 [Example 59, 6-Amino-4-(3-bromo-phenylamino)-[1,7]naphthyridine-3-carbonitrile] | 185 to 190 °C (dec.) | – |
| CC#CC(=O)Nc1cc2c(Nc3cccc(Br)c3)c(C#N)cnc2cn1 [Example 61, But-2-ynoic Acid, [4-(3-bromo-phenylamino)-3-cyano-[1,7]naphthyridin-6-yl]-amide] | 255 °C (dec.) | – |
| CN(C)CC=CC(=O)Nc1cc2c(Nc3cccc(Br)c3)c(C#N)cnc2cn1 [Example 62, 4-Dimethylamino-but-2-enoic Acid, [4-(3-bromo-phenylamino)-3-cyano-[1,7]naphthyridin-6-yl]-amide] | 180 to 185 °C (dec.) | IC50 [3]: 0.356 µg/mL (≈ 0.789 µM) |
| N#Cc1cnc2cnc(NCCN3CCOCC3)cc2c1Nc1cccc(Br)c1 [Example 63, 4-(3-Bromo-phenylamino)-6-(2-morpholino-4-yl-ethylamino)-[1,7]naphthyridine-3-carbonitrile] | 80 to 96 °C (dec.) | – |
| CNc1cc2c(Nc3cccc(Br)c3)c(C#N)cnc2cn1 [Example 64, 4-(3-Bromo-phenylamino)-6-methylamino-[1,7]naphthyridine-3-carbonitrile] | 250 °C (dec.) | – |
| Cc1ccc(Nc2c(C#N)cnc3cnc(F)cc23)cc1O [Example 66, 6-Fluoro-4-(3-hydroxy-4-methyl-phenylamino)-[1,7]naphthyridine-3-carbonitrile] | 236 to 239 °C (dec.) | IC50 [1]: > 3300 nM |
| N#Cc1cnc2cnc(F)cc2c1Nc1ccc(Oc2ccccc2)cc1 [Example 67, 6-Fluoro-4-(4-phenoxy-phenylamino)-[1,7]naphthyridine-3-carbonitrile] | 211 to 213 °C | – |
| N#Cc1cnc2cnc(F)cc2c1Nc1ccc(Cl)cc1Cl [Example 68, 4-(2,4-Dichloro-phenylamino)-6-fluoro-[1,7]naphthyridine-3-carbonitrile] | 206 to 208 °C | – |
| N#Cc1cnc2cnc(F)cc2c1Nc1ccc(F)c(Cl)c1 [Example 69, 4-(3-Chloro-4-fluoro-phenylamino)-6-fluoro-[1,7]naphthyridine-3-carbonitrile] | 108 to 111 °C | – |
| N#Cc1cnc2cnc(F)cc2c1Oc1ccc(Cl)cc1F [Example 71, 4-(4-Chloro-2-fluoro-phenoxy)-6-fluoro-[1,7]naphthyridine-3-carbonitrile] | 186 to 188 °C | – |
| CN(C)CCOc1cc2c(Nc3ccc(Oc4ccccc4)cc3)c(C#N)cnc2cn1 [Example 73, 6-(2-Dimethylamino-ethoxy)4(4-phenoxy-phenylamino)-[1,7]naphthyridine-3-carbonitrile] | 159 to 161 °C | – |
| CN(C)CCOc1cc2c(Nc3ccc(F)c(Cl)c3)c(C#N)cnc2cn1 [Example 74, 4-(3-Chloro-4-fluoro-phenylamino)-6-(2-dimethylamino-ethoxy)-[1,7]naphthyridine-3-carbonitrile] | 131 to 132 °C | – |
| CN(C)CCOc1cc2c(Nc3ccc(Cl)cc3F)c(C#N)cnc2cn1 [Example 76, 4-(4-Chloro-2-fluoro-phenylamino)-6-(2-dimethylamino-ethoxy)-[1,7]naphthyridine-3-carbonitrile] | 150 to 152 °C | – |
| CN(C)CCOc1cc2c(Nc3cccc(Br)c3)c(C#N)cnc2cn1 [Example 77, 4-(3-Bromo-phenylamino)-6-(2-dimethylamino-ethoxy)-[1,7]naphthyridine-3-carbonitrile] | 138 to 139 °C | IC50 [1]: > 2400 nM |
| N#Cc1cnc2cnc(Cl)cc2c1Nc1cccc(Br)c1 [Example 83, 4-(3-Bromo-phenylamino)-6-chloro-[1,7]naphthyridine-3-carbonitrile] | 220 to 223 °C | – |
| C[Si](C)(C)C#Cc1cc2c(Nc3cccc(Br)c3)c(C#N)cnc2cn1 [Example 85, 4-(3-Bromo-phenylamino)-6-trimethylsilanylethynyl-[1,7]naphthyridine-3-carbonitrile] | 125 °C | IC50 [4]: 4.2 µg/mL (≈ 9.97 µM); IC50 [5]: 3.06 µg/mL (≈ 7.25 µM); IC50 [6]: 3.59 µg/mL (≈ 8.52 µM); IC50 [7]: 2.34 µg/mL (≈ 5.56 µM); IC50 [8]: 2.97 µg/mL (≈ 7.05 µM); IC50 [3]: 4.72 µg/mL (≈ 11.2 µM) |
| C#Cc1cc2c(Nc3cccc(Br)c3)c(C#N)cnc2cn1 [Example 86, 4-(3-Bromo-phenylamino)-6-ethynyl-[1,7]naphthyridine-3-carbonitrile] | 224 °C (dec.) | – |
